Our source for the Ki values is patent US9226916B2, “Pyrrolidine derivatives” (HOFFMANN-LA ROCHE INC., priority 2009, dated 2016).

Molecules are shown by their SMILES. Where two headings read alike, the source gives them in different places.

The target in this experiment is T1, recombinant human NK3 receptor (Homo sapiens, UniProt P29371).
T1 construct: expressed in transfected cells; host or cells: HEK293 cells, transient expression; membranes
T1 sequence (P29371 1-465): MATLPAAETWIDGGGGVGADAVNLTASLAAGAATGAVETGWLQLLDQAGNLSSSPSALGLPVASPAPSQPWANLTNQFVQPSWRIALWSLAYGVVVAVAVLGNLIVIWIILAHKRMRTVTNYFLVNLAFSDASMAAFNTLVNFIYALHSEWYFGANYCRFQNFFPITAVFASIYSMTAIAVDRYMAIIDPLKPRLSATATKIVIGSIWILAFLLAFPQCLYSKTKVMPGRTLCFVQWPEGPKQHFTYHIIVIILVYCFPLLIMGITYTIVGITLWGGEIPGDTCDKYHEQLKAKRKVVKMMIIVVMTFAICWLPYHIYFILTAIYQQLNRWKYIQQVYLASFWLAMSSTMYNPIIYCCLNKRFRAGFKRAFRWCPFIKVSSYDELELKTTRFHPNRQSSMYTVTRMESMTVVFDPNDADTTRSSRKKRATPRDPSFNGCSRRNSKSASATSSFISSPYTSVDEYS
In words: [3H]SR142801 competition binding assay.

The mark [1] stands for this setting: hNK-3 receptor affinity, membranes from HEK293 cells transiently expressing recombinant human NK3 receptor, [3H]SR142801, Cheng-Prussoff, read-out: Data Ki.

Turning to `CN(C(=O)Oc1ccc(F)cc1)[C@@H]1CN(C(=O)C2CCN(C(=O)C3(C)CC3)CC2)C[C@H]1c1ccc(F)cc1` [Example 129, {(3S,4R)-4-(4-Fluoro-phenyl)-1-[1-(1-methyl-cyclopropanecarbonyl)-piperidine-4-carbonyl]-pyrrolidin-3-yl}-methyl-carbamic acid 4-fluoro-phenyl ester], the Ki stood at 0.0137 µM. The same measure, in the same setting: in the case of `CN(C(=O)Oc1ccc(F)cc1)[C@@H]1CN(C(=O)C2CCN(c3ccc(C#N)cn3)CC2)C[C@H]1c1ccc(F)cc1` [Example 131, [(3S,4R)-1-(5′-Cyano-3,4,5,6-tetrahydro-2H-[1,2′]bipyridinyl-4-carbonyl)-4-(4-fluoro-phenyl)-pyrrolidin-3-yl]-methyl-carbamic acid 4-fluoro-phenyl ester] it was 0.001 µM; in that of `CN(C(=O)Oc1ccc(F)cc1)[C@H]1CN(C(=O)C2CCN(c3ccc(C#N)cn3)CC2)C[C@@H]1c1ccc(F)cc1` [Example 132, [(3R,4S)-1-(5′-Cyano-3,4,5,6-tetrahydro-2H-[1,2′]bipyridinyl-4-carbonyl)-4-(4-fluoro-phenyl)-pyrrolidin-3-yl]-methyl-carbamic acid 4-fluoro-phenyl ester], 0.0556 µM. On to `CN(C(=O)Oc1ccc(F)cc1)[C@@H]1CN(C(=O)C2CCN(C(=O)OC(C)(C)C)CC2)C[C@H]1c1ccc(Cl)cc1` [Example 133, 4-{(3R,4S)-3-(4-Chloro-phenyl)-4-[(4-fluoro-phenoxycarbonyl)-methyl-amino]-pyrrolidine-1-carbonyl}-piperidine-1-carboxylic acid tert-butyl ester], for which the Ki was 0.003 µM. The same measure, in the same setting: in the case of `Cc1nnc(N2CCC(C(=O)N3C[C@@H](N(C)C(=O)Oc4ccc(F)cc4)[C@H](c4ccc(Cl)cc4)C3)CC2)o1` [Example 134, {(3S,4R)-4-(4-Chloro-phenyl)-1-[1-(5-methyl-[1,3,4]oxadiazol-2-yl)-piperidine-4-carbonyl]-pyrrolidin-3-yl}-methyl-carbamic acid 4-fluoro-phenyl ester] it was 0.0036 µM; in that of `CN(C(=O)Oc1ccc(F)cc1)[C@@H]1CN(C(=O)C2CCNCC2)C[C@H]1c1ccc(Cl)cc1` [Example 135, [(3S,4R)-4-(4-Chloro-phenyl)-1-(piperidine-4-carbonyl)-pyrrolidin-3-yl]-methyl-carbamic acid 4-fluoro-phenyl ester], 0.0403 µM; in that of `CCCOC(=O)N(C)[C@@H]1CN(C(=O)C2CCN(c3ccc(C#N)cn3)CC2)C[C@H]1c1ccc(Cl)cc1` [Example 138, [(3S,4R)-4-(4-Chloro-phenyl)-1-(5′-cyano-3,4,5,6-tetrahydro-2H-[1,2′]bipyridinyl-4-carbonyl)-pyrrolidin-3-yl]-methyl-carbamic acid propyl ester], 0.0371 µM. The same measure, in the same setting: in the case of `CC(C)COC(=O)N(C)[C@@H]1CN(C(=O)C2CCN(c3ccc(C#N)cn3)CC2)C[C@H]1c1ccc(Cl)cc1` [Example 139, [(3S,4R)-4-(4-Chloro-phenyl)-1-(5′-cyano-3,4,5,6-tetrahydro-2H-[1,2′]bipyridinyl-4-carbonyl)-pyrrolidin-3-yl]-methyl-carbamic acid isobutyl ester] it was 0.0039 µM. On the same count and under the same terms, for `CN(C(=O)Oc1ccc(F)cc1)[C@@H]1CN(C(=O)C2CCN(c3ccc(C#N)nn3)CC2)C[C@H]1c1ccc(Cl)cc1` [Example 140, {(3S,4R)-4-(4-Chloro-phenyl)-1-[1-(6-cyano-pyridazin-3-yl)-piperidine-4-carbonyl]-pyrrolidin-3-yl}-methyl-carbamic acid 4-fluoro-phenyl ester] the value was 0.0009 µM; for `CC(C)COC(=O)N(C)[C@@H]1CN(C(=O)C2CCN(C(=O)C3(C)CC3)CC2)C[C@H]1c1ccc(Cl)cc1` [Example 141, {(3S,4R)-4-(4-Chloro-phenyl)-1-[1-(1-methyl-cyclopropanecarbonyl)-piperidine-4-carbonyl]-pyrrolidin-3-yl}-methyl-carbamic acid isobutyl ester], 0.0135 µM. As for `CN(C(=O)OC1CCCCC1)[C@@H]1CN(C(=O)C2CCN(c3ccc(C#N)cn3)CC2)C[C@H]1c1ccc(Cl)cc1` [Example 143, [(3S,4R)-4-(4-Chloro-phenyl)-1-(5′-cyano-3,4,5,6-tetrahydro-2H-[1,2′]bipyridinyl-4-carbonyl)-pyrrolidin-3-yl]-methyl-carbamic acid cyclohexyl ester], the Ki under setting [1] was 0.0032 µM. For `CN(C(=O)OCCC(F)(F)F)[C@@H]1CN(C(=O)C2CCN(c3ccc(C#N)cn3)CC2)C[C@H]1c1ccc(Cl)cc1` [Example 144, [(3S,4R)-4-(4-Chloro-phenyl)-1-(5′-cyano-3,4,5,6-tetrahydro-2H-[1,2′]bipyridinyl-4-carbonyl)-pyrrolidin-3-yl]-methyl-carbamic acid 3,3,3-trifluoro-propyl ester], the Ki under setting [1] was 0.0211 µM.

For `CN(C(=O)OCCC(F)(F)F)[C@H]1CN(C(=O)C2CCN(c3ccc(C#N)cn3)CC2)C[C@@H]1c1ccc(Cl)cc1` [Example 145, [(3R,4S)-4-(4-Chloro-phenyl)-1-(5′-cyano-3,4,5,6-tetrahydro-2H-[1,2′]bipyridinyl-4-carbonyl)-pyrrolidin-3-yl]-methyl-carbamic acid 3,3,3-trifluoro-propyl ester], the Ki under setting [1] was found to be 0.0569 µM. With `CN(C(=O)Oc1ccc(F)cc1)[C@@H]1CN(C(=O)C2CCOC(C)(C)C2)C[C@H]1c1ccc(Cl)cc1` (stereo partly drawn) [Example 146, [(3S,4R)-4-(4-Chloro-phenyl)-1-(2,2-dimethyl-tetrahydro-pyran-4-carbonyl)-pyrrolidin-3-yl]-methyl-carbamic acid 4-fluoro-phenyl ester], the Ki worked out at 0.0068 µM. Turning to `CN(C(=O)Oc1ccc(F)cc1)[C@@H]1CN(C(=O)C2CCCOC2)C[C@H]1c1ccc(Cl)cc1` (stereo partly drawn) [Example 147, [(3S,4R)-4-(4-Chloro-phenyl)-1-(tetrahydro-pyran-3-carbonyl)-pyrrolidin-3-yl]-methyl-carbamic acid 4-fluoro-phenyl ester], the inhibitory constant (Ki) turned out to be 0.0737 µM. The same measure, in the same setting: for `COC1CC(C(=O)N2C[C@@H](N(C)C(=O)Oc3ccc(F)cc3)[C@H](c3ccc(Cl)cc3)C2)C1` (stereo partly drawn) [Example 149, [(3S,4R)-4-(4-Chloro-phenyl)-1-(3-methoxy-cyclobutanecarbonyl)-pyrrolidin-3-yl]-methyl-carbamic acid 4-fluoro-phenyl ester] the value was 0.0908 µM.

Take `CN(C(=O)Oc1ccc(F)cc1)[C@@H]1CN(C(=O)C2CCN(C3CC3)CC2)C[C@H]1c1ccc(Cl)cc1` [Example 150, [(3S,4R)-4-(4-Chloro-phenyl)-1-(1-cyclopropyl-piperidine-4-carbonyl)-pyrrolidin-3-yl]-methyl-carbamic acid 4-fluoro-phenyl ester]: the Ki came out at 0.0156 µM. Same read-out and setting: for `CN(C(=O)Oc1ccc(F)cc1)[C@@H]1CN(C(=O)C2CCN(C(=O)OC(C)(C)C)C2)C[C@H]1c1ccc(Cl)cc1` (stereo partly drawn) [Example 151, 3-{(3R,4S)-3-(4-Chloro-phenyl)-4-[(4-fluoro-phenoxycarbonyl)-methyl-amino]-pyrrolidine-1-carbonyl}-pyrrolidine-1-carboxylic acid tert-butyl ester] the value was 0.0182 µM. In the case of `CN(C(=O)OC1CCCCC1)[C@@H]1CN(C(=O)C2CCN(C(=O)C3(C)CC3)CC2)C[C@H]1c1ccc(Cl)cc1` [Example 152, {(3S,4R)-4-(4-Chloro-phenyl)-1-[1-(1-methyl-cyclopropanecarbonyl)-piperidine-4-carbonyl]-pyrrolidin-3-yl}-methyl-carbamic acid cyclohexyl ester], the Ki under setting [1] was found to be 0.0147 µM. Turning to `CC(OC(=O)N(C)[C@@H]1CN(C(=O)C2CCN(c3ccc(C#N)cn3)CC2)C[C@H]1c1ccc(Cl)cc1)C1CC1` (stereo partly drawn) [Example 153, [(3S,4R)-4-(4-Chloro-phenyl)-1-(5′-cyano-3,4,5,6-tetrahydro-2H-[1,2′]bipyridinyl-4-carbonyl)-pyrrolidin-3-yl]-methyl-carbamic acid 1-cyclopropyl-ethyl ester], the inhibition constant (Ki) under setting [1] stood at 0.0192 µM.

For `CN(C(=O)OC1CCOCC1)[C@@H]1CN(C(=O)C2CCN(c3ccc(C#N)cn3)CC2)C[C@H]1c1ccc(Cl)cc1` [Example 156, [(3S,4R)-4-(4-Chloro-phenyl)-1-(5′-cyano-3,4,5,6-tetrahydro-2H-[1,2′]bipyridinyl-4-carbonyl)-pyrrolidin-3-yl]-methyl-carbamic acid tetrahydro-pyran-4-yl ester], the Ki under setting [1] worked out at 0.0183 µM.

For `CCC(C)OC(=O)N(C)[C@@H]1CN(C(=O)C2CCN(c3ccc(C#N)cn3)CC2)C[C@H]1c1ccc(Cl)cc1` (stereo partly drawn) [Example 157, [(3S,4R)-4-(4-Chloro-phenyl)-1-(5′-cyano-3,4,5,6-tetrahydro-2H-[1,2′]bipyridinyl-4-carbonyl)-pyrrolidin-3-yl]-methyl-carbamic acid sec-butyl ester], the Ki came to 0.0271 µM. In the case of `CN(C(=O)OCC(F)(F)F)[C@@H]1CN(C(=O)C2CCN(c3ccc(C#N)cn3)CC2)C[C@H]1c1ccc(Cl)cc1` [Example 158, [(3S,4R)-4-(4-Chloro-phenyl)-1-(5′-cyano-3,4,5,6-tetrahydro-2H-[1,2′]bipyridinyl-4-carbonyl)-pyrrolidin-3-yl]-methyl-carbamic acid 2,2,2-trifluoro-ethyl ester], under setting [1], the inhibition constant (Ki) was determined as 0.0125 µM.

On to `CN(C(=O)O[C@H]1CC[C@H](C(F)(F)F)CC1)[C@@H]1CN(C(=O)C2CCN(c3ccc(C#N)cn3)CC2)C[C@H]1c1ccc(Cl)c(Cl)c1` [Example 159, [(3S,4R)-1-(5′-Cyano-3,4,5,6-tetrahydro-2H-[1,2′]bipyridinyl-4-carbonyl)-4-(3,4-dichloro-phenyl)-pyrrolidin-3-yl]-methyl-carbamic acid 4-trifluoromethyl-cyclohexyl ester], for which the Ki under setting [1] came to 0.0004 µM.
